Values after ≈ are worked out from the molar mass of the structure shown. Where two headings read alike, the source gives them in different places.
Legend:
E. coli GC 2235 = assay: MIC, broth microdilution; conditions: Escherichia coli
E. coli GC 4559 = assay: MIC, broth microdilution; conditions: Escherichia coli
S. aureus GC 6467 = assay: MIC, broth microdilution; conditions: Staphylococcus aureus
E. coli GC 6465 = assay: MIC, broth microdilution; conditions: Escherichia coli
E. coli GC 2270 = assay: MIC, broth microdilution; conditions: Escherichia coli
S. aureus GC 6469 = assay: MIC, broth microdilution; conditions: Staphylococcus aureus
S. aureus GC 4536 = assay: MIC, broth microdilution; conditions: Staphylococcus aureus
E. coli GC 1073 = assay: MIC, broth microdilution; conditions: Escherichia coli
E. coli GC 2233 = assay: MIC, broth microdilution; conditions: Escherichia coli
E. coli GC 2236 = assay: MIC, broth microdilution; conditions: Escherichia coli
E. coli GC 2271 = assay: MIC, broth microdilution; conditions: Escherichia coli
E. coli GC 2203 = assay: MIC, broth microdilution; conditions: Escherichia coli
E. faecalis GC 4555 = assay: MIC, broth microdilution; conditions: Enterococcus faecalis
E. faecalis GC 2265 = assay: MIC, broth microdilution; conditions: Enterococcus faecalis
S. agalactiae GC 4564 = assay: MIC, broth microdilution; conditions: Streptococcus agalactiae
E. coli GC 4560 = assay: MIC, broth microdilution; conditions: Escherichia coli
P. aeruginosa GC 2214 = assay: MIC, broth microdilution; conditions: Pseudomonas aeruginosa
Staph. = assay: Range of MIC for Staph. strains, including MRSA; conditions: Staphylococcus aureus
Method: Antimicrobial susceptibility testing. The in vitro activities of the antibiotics are determined by the broth microdilution method as recommended by the National Committee for Clinical Laboratory Standards (NCCLS) (1). Mueller-Hinton II broth (MHBII)(BBL Cockeysville, Md.) is the medium employed in the testing procedures. Microtiter plates containing serial dilutions of each antimicrobial agent are inoculated with each organism to yield the appropriate density (10^5 CFU/ml) in a 100 μl final volume. The plates are incubated for 18-22 hours at 35° C. in ambient air.
Representative compounds were first incubated in mouse serum for an hour prior to the in vitro testing against a panel of selected gram-positive and gram-negative bacteria strains. All compounds were also pre-incubated in water for an hour prior to testing as control. Representative compounds of Formula I were incubated in human serum prior to MIC determination.

E. faecalis GC 2242 = assay: MIC, broth microdilution; conditions: Enterococcus faecalis

COC(=O)N(CC(=O)Nc1cc(N(C)C)c2c(c1O)C(=O)C1=C(O)[C@]3(O)C(=O)C(C(N)=O)=C(O)[C@@H](N(C)C)[C@@H]3C[C@@H]1C2)C(C)(C)C [Example 60, methyl 2-{[(5aR,6aS,7S,10aS)-9-(aminocarbonyl)-4,7-bis(dimethylamino)-1,8,10a,11-tetrahydroxy-10,12-dioxo-5,5a,6,6a,7,10,10a,12-octahydrotetracen-2-yl]amino}-2-oxoethyl(tert-butyl)carbamate] showed an MIC (E. coli GC 2235; GC2235, read-out: MINIMAL INHIBITORY CONCENTRATION MIC, Human Serum) of 64 µg/mL (≈ 99.4 µM), an MIC (E. coli GC 2235; GC2235, read-out: MINIMAL INHIBITORY CONCENTRATION MIC, Mouse Serum) of 64 µg/mL (≈ 99.4 µM) and an MIC (E. coli GC 2235; GC2235, read-out: MINIMAL INHIBITORY CONCENTRATION MIC, Water) greater than 64 µg/mL. The MIC (E. coli GC 4559; GC4559, read-out: MINIMAL INHIBITORY CONCENTRATION MIC, Human Serum) was greater than 64 µg/mL, the MIC (E. coli GC 4559; GC4559, read-out: MINIMAL INHIBITORY CONCENTRATION MIC, Mouse Serum) was greater than 64 µg/mL and the MIC (E. coli GC 4559; GC4559, read-out: MINIMAL INHIBITORY CONCENTRATION MIC, Water) was greater than 64 µg/mL. The MIC (S. aureus GC 6467; GC6467, read-out: MINIMAL INHIBITORY CONCENTRATION MIC, Human Serum) was 4 µg/mL (≈ 6.21 µM), the MIC (S. aureus GC 6467; GC6467, read-out: MINIMAL INHIBITORY CONCENTRATION MIC, Mouse Serum) was 4 µg/mL (≈ 6.21 µM) and the MIC (S. aureus GC 6467; GC6467, read-out: MINIMAL INHIBITORY CONCENTRATION MIC, Water) was 8 µg/mL (≈ 12.4 µM). The MIC (E. coli GC 6465; GC6465, read-out: MINIMAL INHIBITORY CONCENTRATION MIC, Human Serum) was greater than 64 µg/mL, the MIC (E. coli GC 6465; GC6465, read-out: MINIMAL INHIBITORY CONCENTRATION MIC, Mouse Serum) was greater than 64 µg/mL and the MIC (E. coli GC 6465; GC6465, read-out: MINIMAL INHIBITORY CONCENTRATION MIC, Water) was greater than 64 µg/mL. The MIC (E. coli GC 2270; GC2270, read-out: MINIMAL INHIBITORY CONCENTRATION MIC, Human Serum) was greater than 64 µg/mL, the MIC (E. coli GC 2270; GC2270, read-out: MINIMAL INHIBITORY CONCENTRATION MIC, Mouse Serum) was greater than 64 µg/mL and the MIC (E. coli GC 2270; GC2270, read-out: MINIMAL INHIBITORY CONCENTRATION MIC, Water) was greater than 64 µg/mL. It also gave an MIC (S. aureus GC 6469; GC6469, read-out: MINIMAL INHIBITORY CONCENTRATION MIC, Human Serum) of 2 µg/mL (≈ 3.11 µM), an MIC (S. aureus GC 6469; GC6469, read-out: MINIMAL INHIBITORY CONCENTRATION MIC, Mouse Serum) of 2 µg/mL (≈ 3.11 µM) and an MIC (S. aureus GC 6469; GC6469, read-out: MINIMAL INHIBITORY CONCENTRATION MIC, Water) of 4 µg/mL (≈ 6.21 µM). It also gave an MIC (S. aureus GC 4536; GC4536, read-out: MINIMAL INHIBITORY CONCENTRATION MIC, Human Serum) of 2 µg/mL (≈ 3.11 µM), an MIC (S. aureus GC 4536; GC4536, read-out: MINIMAL INHIBITORY CONCENTRATION MIC, Mouse Serum) of 2 µg/mL (≈ 3.11 µM) and an MIC (S. aureus GC 4536; GC4536, read-out: MINIMAL INHIBITORY CONCENTRATION MIC, Water) of 4 µg/mL (≈ 6.21 µM). It also gave an MIC (E. coli GC 1073; GC1073, read-out: MINIMAL INHIBITORY CONCENTRATION MIC, Human Serum) greater than 64 µg/mL, an MIC (E. coli GC 1073; GC1073, read-out: MINIMAL INHIBITORY CONCENTRATION MIC, Mouse Serum) greater than 64 µg/mL and an MIC (E. coli GC 1073; GC1073, read-out: MINIMAL INHIBITORY CONCENTRATION MIC, Water) greater than 64 µg/mL. For the same molecule, the MIC (E. coli GC 2233; GC2233, read-out: MINIMAL INHIBITORY CONCENTRATION MIC, Human Serum) was greater than 64 µg/mL, the MIC (E. coli GC 2233; GC2233, read-out: MINIMAL INHIBITORY CONCENTRATION MIC, Mouse Serum) was greater than 64 µg/mL and the MIC (E. coli GC 2233; GC2233, read-out: MINIMAL INHIBITORY CONCENTRATION MIC, Water) was greater than 64 µg/mL. It also gave an MIC (E. coli GC 2236; GC2236, read-out: MINIMAL INHIBITORY CONCENTRATION MIC, Human Serum) greater than 64 µg/mL, an MIC (E. coli GC 2236; GC2236, read-out: MINIMAL INHIBITORY CONCENTRATION MIC, Mouse Serum) greater than 64 µg/mL and an MIC (E. coli GC 2236; GC2236, read-out: MINIMAL INHIBITORY CONCENTRATION MIC, Water) greater than 64 µg/mL. It also gave an MIC (E. coli GC 2271; GC2271, read-out: MINIMAL INHIBITORY CONCENTRATION MIC, Human Serum) of 64 µg/mL (≈ 99.4 µM), an MIC (E. coli GC 2271; GC2271, read-out: MINIMAL INHIBITORY CONCENTRATION MIC, Mouse Serum) of 64 µg/mL (≈ 99.4 µM) and an MIC (E. coli GC 2271; GC2271, read-out: MINIMAL INHIBITORY CONCENTRATION MIC, Water) greater than 64 µg/mL. It also gave an MIC (E. coli GC 2203; GC2203, read-out: MINIMAL INHIBITORY CONCENTRATION MIC, Human Serum) greater than 64 µg/mL, an MIC (E. coli GC 2203; GC2203, read-out: MINIMAL INHIBITORY CONCENTRATION MIC, Mouse Serum) greater than 64 µg/mL and an MIC (E. coli GC 2203; GC2203, read-out: MINIMAL INHIBITORY CONCENTRATION MIC, Water) greater than 64 µg/mL. For the same molecule, the MIC (E. faecalis GC 4555; GC4555, read-out: MINIMAL INHIBITORY CONCENTRATION MIC, Human Serum) was 2 µg/mL (≈ 3.11 µM), the MIC (E. faecalis GC 4555; GC4555, read-out: MINIMAL INHIBITORY CONCENTRATION MIC, Mouse Serum) was 4 µg/mL (≈ 6.21 µM) and the MIC (E. faecalis GC 4555; GC4555, read-out: MINIMAL INHIBITORY CONCENTRATION MIC, Water) was 4 µg/mL (≈ 6.21 µM). The MIC (E. faecalis GC 2265; GC2265, read-out: MINIMAL INHIBITORY CONCENTRATION MIC, Human Serum) was 4 µg/mL (≈ 6.21 µM), the MIC (E. faecalis GC 2265; GC2265, read-out: MINIMAL INHIBITORY CONCENTRATION MIC, Mouse Serum) was 8 µg/mL (≈ 12.4 µM) and the MIC (E. faecalis GC 2265; GC2265, read-out: MINIMAL INHIBITORY CONCENTRATION MIC, Water) was 8 µg/mL (≈ 12.4 µM). It also gave an MIC (S. agalactiae GC 4564; GC4564, read-out: MINIMAL INHIBITORY CONCENTRATION MIC, Human Serum) of 4 µg/mL (≈ 6.21 µM), an MIC (S. agalactiae GC 4564; GC4564, read-out: MINIMAL INHIBITORY CONCENTRATION MIC, Mouse Serum) of 4 µg/mL (≈ 6.21 µM) and an MIC (S. agalactiae GC 4564; GC4564, read-out: MINIMAL INHIBITORY CONCENTRATION MIC, Water) of 4 µg/mL (≈ 6.21 µM). It also gave an MIC (E. coli GC 4560; GC4560, read-out: MINIMAL INHIBITORY CONCENTRATION MIC, Human Serum) of 1 µg/mL (≈ 1.55 µM), an MIC (E. coli GC 4560; GC4560, read-out: MINIMAL INHIBITORY CONCENTRATION MIC, Mouse Serum) of 1 µg/mL (≈ 1.55 µM) and an MIC (E. coli GC 4560; GC4560, read-out: MINIMAL INHIBITORY CONCENTRATION MIC, Water) of 2 µg/mL (≈ 3.11 µM). For the same molecule, the MIC (P. aeruginosa GC 2214; GC2214, read-out: MINIMAL INHIBITORY CONCENTRATION MIC, Human Serum) was greater than 64 µg/mL, the MIC (P. aeruginosa GC 2214; GC2214, read-out: MINIMAL INHIBITORY CONCENTRATION MIC, Mouse Serum) was greater than 64 µg/mL and the MIC (P. aeruginosa GC 2214; GC2214, read-out: MINIMAL INHIBITORY CONCENTRATION MIC, Water) was greater than 64 µg/mL. For the same molecule, the MIC (Staph.; MRSA, read-out: Range of MIC, Staph (Mouse Serum)) was 2 to 8 µg/mL (≈ 3.11 to 12.4 µM), the MIC (Staph.; MRSA, read-out: Range of MIC, Staph (Water)) was 4 to 16 µg/mL (≈ 6.21 to 24.9 µM) and the MIC (Staph.; read-out: Minimum inhibitory concentration (MIC), Staph (Human Serum)) was 2 to 8 µg/mL (≈ 3.11 to 12.4 µM). It also gave an MIC (Staph.; read-out: Minimum inhibitory concentration (MIC), Staph (Water)) of 4 to 16 µg/mL (≈ 6.21 to 24.9 µM), an MIC (E. faecalis GC 2242; GC2242, read-out: MINIMAL INHIBITORY CONCENTRATION MIC, Human Serum) of 4 µg/mL (≈ 6.21 µM) and an MIC (E. faecalis GC 2242; GC2242, read-out: MINIMAL INHIBITORY CONCENTRATION MIC, Mouse Serum) of 8 µg/mL (≈ 12.4 µM). The MIC (E. faecalis GC 2242; GC2242, read-out: MINIMAL INHIBITORY CONCENTRATION MIC, Water) was 8 µg/mL (≈ 12.4 µM).
